Key:
[1] = Plasma immunoreactive insulin concentration in diabetic rabbits by radioimmunoassay; format: in vivo; conditions: TPIS 1 mA, 500 IU/ml pH 7.10
Method: (§1) An aqueous solution of insulin (500 IU/ml) at pH 7.10 is used. An aliquot of 2.5 ml of this insulin solution is filled into the refillable dosage unit having a microporous membrane as the drug-releasing surface. The dosage unit is then assembled as a part of the pharmaceutical reservoir electrode of the iontotherapeutic device and membrane surface thereof is applied to the skin at dorsal region of 3 diabetic rabbits. Blood samples are withdrawn at regular time intervals and analyzed for immunoreactive insulin concentration by radioimmunoassay and for glucose levels by glucose analyzer. The reduction in glucose level from hyperglycemic state is the pharmacodynamic responses to the insulin transdermally absorbed.
An aqueous solution of insulin (500 IU/ml) at pH 7.10 is used. An aliquot of 2.5 ml of this insulin solution is filled into the refillable dosage unit having a microporous membrane as the drug-releasing surface. The dosage unit is then assembled as a part of the pharmaceutical reservoir electrode of the iontotherapeutic device and membrane surface thereof is applied to the abdominal skin of 2 groups of diabetic rabbits. Blood samples are withdrawn at regular time intervals and analyzed for immunoreactive insulin concentration by radioimmunoassay and for glucose levels by glucose analyzer. […]

[2] = In vitro skin permeation of insulin, Valia-Chien cell, I^125-insulin scintillation counting; format: in vitro ADME, hairless rat; conditions: for Skin Permeation Rate: 5.3 IU/ml, pH 7.1
Method: (§2) An aqueous solution of insulin (5.3 IU/ml containing 0.3 mcCi of I^125 -insulin) is prepared and adjusted to pH 7.1 using NaOH. An aliquot of 3.5 ml of this insulin solution is filled into the refillable dosage unit having a microporous membrane as the drug-releasing surface. The dosage unit is then assembled as a part of the pharmaceutical reservoir electrode of the iontotherapeutic device and membrane surface thereof is applied to the stratum corneum side of hairless rat skin mounted in the Valia-Chien skin permeation cell at 37° C. Samples are withdrawn at regular time intervals and radioactivity is measured by scintillation counter to determine the amount of insulin which has been transdermally absorbed.
as §2, with “pH 3.7, 5.2 or” for “pH”, “either HCl or NaOH solution.” for “NaOH.”, “radio-activity” for “radioactivity”

[3] = tested on: blood glucose level (B.G.L.) in diabetic rabbits; experiment: Reduction of blood glucose levels in diabetic rabbits by glucose analyzer; format: in vivo
Method: as §1
An aqueous solution of insulin (500 IU/ml) at pH 7.10 is used. An aliquot of 2.5 ml of this insulin solution is filled into the refillable dosage unit having a microporous membrane as the drug-releasing surface. The dosage unit is then assembled as a part of the pharmaceutical reservoir electrode of the iontotherapeutic device and membrane surface thereof is applied to the abdominal skin of 2 groups of diabetic rabbits. Blood samples are withdrawn at regular time intervals and analyzed for immunoreactive insulin concentration by radioimmunoassay and for glucose levels by glucose analyzer. The reduction in glucose level from hyperglycemic state is the pharmacodynamic responses to the insulin transdermally absorbed.

[4] = tested on: blood glucose level (B.G.L.) in the diabetic hairless rats; experiment: Reduction in blood glucose level in diabetic hairless rats; format: in vivo
Method: An aqueous solution of insulin at a concentration of 250 IU/ml is prepared by dissolving 193.8 mg (25.8 IU/mg) of pure porcine insulin in 20 ml of citrate buffer at pH 3.6. Two ml of the insulin solution so prepared is filled into a refillable dosage unit having a microporous membrane as the drug-releasing surface. This insulin-containing reservoir-type dosage unit is then assembled as a part of the pharmaceutical reservoir electrode of the iontotherapeutic device and applied successively on the abdominal skin of 9 diabetic hairless rats with the transdermal periodic iontotherapeutic system operating at 1 mA with square waveform mode to study the effect of frequency, on/off ratio and treatment duration on the reduction of blood glucose level. The results are shown and compared, respectively, in FIGS. 16, 17 and 18.
The same insulin solution is prepared in the same way as in Example 1, except that a phosphate buffer at pH 7.1 is used to replace the double-distilled water. Two ml of the insulin solution so prepared is filled into a refillable dosage unit having a microporous membrane as the drug-releasing surface. This unit dose is applied to 3 diabetic hairless rats following the same operation procedures as in Example 3 to study the effect of treatment duration on the reduction of blood glucose level.
(§3) An aqueous buffer solution of insulin (250 IU/ml) is prepared in citrate-phosphate buffer at pH 3.68. An aliquot of 2.5 ml of this insulin solution is filled into the refillable dosage unit having a microporous membrane as the drug-releasing surface. The dosage unit is then assembled as a part of the pharmaceutical reservoir electrode of the iontotherapeutic device and membrane surface thereof is applied to the skin at abdominal region of 3 groups of anaesthetized, diabetic hairless rats. Blood samples are withdrawn at regular time intervals and glucose levels are measured by glucose analyzer. The reduction in glucose level from hyperglycemic state is the pharmacodynamic responses to the insulin absorbed transdermally.
as §3, with “5” for “3 groups of”

In the case of insulin, the “plasma immunoreactive insulin concentration” value ([1]; 2 KHz, on/off 1/1, square, 40 min, dorsal skin) is reported as “increases rapidly”, the “plasma immunoreactive insulin concentration, TPIS vs TIDD” value ([1]; 40 min vs TIDD 4 mA, 80 min, abdominal skin) is reported as “increases more rapidly” and the Skin Permeation Rate ([2]; TIDD 1 mA, 0 Hz, 5 min per 60 min for 7 hrs) is reported as 37.5 (±4.5) mcIU/cm^2 /hr. The “increase in TPIS-facilitated skin permeability, pH dependence” value ([2]; lower pH solution (pH 3.7) vs pH 5.2 and 7.1) was “greater increase”, the Skin Permeation Rate ([2]; no iontotherapy, 48 hours) was 3.94±0.29 mcIU/cm^2 /hr and the “reduction of blood glucose level by TIDD” value ([3]; TIDD (4× current, 2× administration time), pH 7.10) was “lower than the normoglycemic level”. The blood glucose levels ([3]; TPIS 1 mA, 2 KHz, on/off 1/1, square, 40 min, 500 IU/ml pH 7.10, dorsal skin) was “reduced substantially”, the “blood glucose levels, TPIS vs TIDD” value ([3]; TPIS 1 mA, 40 min vs TIDD 4 mA, 80 min, 500 IU/ml pH 7.10, abdominal skin) was “reduced more instantaneously” and the “reduction of blood glucose level by TPIS” value ([3]; TPIS, from hyperglycemic level, pH 7.10) was “near instantaneous reduction”. The “blood glucose level control by TPIS vs SC” value ([3]; TPIS, pH 7.1, compared with subcutaneous administration) was “controlled at a highly constant level”, the blood glucose levels ([4]; TPIS 1 mA, 2 KHz, on/off 1/1, 40 min, 250 IU/ml pH 3.68, waveforms compared) was “reduced substantially” and the “blood glucose levels, Day 1” value ([4]; TPIS 1 mA, 2 KHz, square, on/off 1/1, 40 min, 250 IU/ml pH 3.68, Day 1) was “reduced substantially”. The “reduction of blood glucose level, effect of treatment duration” value ([4]; TPIS 1 mA, on/off 1/1, 1000 Hz, pH 7.1) was “difference in the rate and the duration, but with equal effectiveness”, the “reduction of blood glucose level, effect of treatment duration 20-40 minutes” value ([4]; TPIS 1 mA, on/off 8/1, 2000 Hz, pH 3.6) was “equally effective” and the “reduction of blood glucose level, 2000 Hz vs 1000 Hz” value ([4]; TPIS 1 mA, square waveform, frequency of 2000 Hz vs 1000 Hz, pH 3.6) was “greater magnitude and a longer duration of reduction”. The “blood glucose, Day 3” value ([4]; TPIS on Day 3 with no insulin in electrode, after insulin delivered on Day 1 (skin depot)) was “also reduced”.

Source: US5961482A, “Iontotherapeutic device and process and iontotherapeutic unit dose” (Rutgers, The State University Of New Jersey, priority 1996, dated 1999)
